The results in this text go back to ChEMBL document CHEMBL1144554, “In vitro cytotoxicity evaluation of some substituted isatin derivatives” (Bioorg Med Chem, 2007).

One assay has as its system U-937. The assay is described as follows: Cytotoxicity against human U937 cells. In kind it is ADME, cell-based.
In a further assay the target is T1, Caspase-3 (Homo sapiens) (UniProt P42574).
T1 sequence (whole entry): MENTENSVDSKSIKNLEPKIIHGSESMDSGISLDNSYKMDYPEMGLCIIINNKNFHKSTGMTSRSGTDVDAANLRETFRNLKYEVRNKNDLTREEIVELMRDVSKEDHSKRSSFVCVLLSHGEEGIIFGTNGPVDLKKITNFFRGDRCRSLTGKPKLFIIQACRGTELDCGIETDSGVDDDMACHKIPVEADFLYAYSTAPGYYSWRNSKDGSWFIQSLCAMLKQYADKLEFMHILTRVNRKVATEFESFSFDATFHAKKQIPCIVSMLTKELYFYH
The assay is described as follows: Activation of caspase 3 in Jurkat cells after 5 hr by apoptosis assay. In kind it is cell-based.

In another assay the target is T2, Caspase-7 (Homo sapiens) (UniProt P55210).
T2 sequence (whole entry): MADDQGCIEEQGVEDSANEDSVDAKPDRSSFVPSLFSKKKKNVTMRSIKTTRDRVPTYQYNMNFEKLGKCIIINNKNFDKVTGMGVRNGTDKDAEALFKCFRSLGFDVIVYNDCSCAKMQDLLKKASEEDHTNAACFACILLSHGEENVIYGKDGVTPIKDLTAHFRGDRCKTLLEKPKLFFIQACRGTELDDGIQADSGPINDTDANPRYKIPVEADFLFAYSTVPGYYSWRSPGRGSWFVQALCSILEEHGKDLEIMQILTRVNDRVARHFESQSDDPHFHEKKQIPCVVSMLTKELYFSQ
The assay is described as follows: Activation of caspase 7 in Jurkat cells after 5 hrs by apoptosis assay. In kind it is cell-based.

Another assay has as its system Jurkat. The assay is described as follows: Cytotoxicity against human Jurkat cells. In kind it is cell-based.
For the next assay, the system named is MDA-MB-231. The assay is described as follows: Cytotoxicity against human MDA-MB-231 cells. In kind it is cell-based.
Another assay has as its system MCF7. The assay is described as follows: Cytotoxicity against human MCF7 cells. In kind it is cell-based.
The next assay has as its system PC-3. The assay is described as follows: Cytotoxicity against human PC3 cells. In kind it is cell-based.
In a further assay the test system is HCT-116. The assay is described as follows: Cytotoxicity against human HCT116 cells. In kind it is cell-based.
Assay [1] has as its target Cyclin-dependent kinase 2 (Homo sapiens) (UniProt P24941). The assay is described as follows: Inhibition of CDK2 at 100 uM.

Calls of active or inactive are those of the source. The rule behind the calls is not given here.

Turning to `O=C1Nc2ccccc2C1=O` [ISATIN], in the assay with U-937, half-maximal inhibition (IC50) was put at 565 µM. Regarding `O=C1Nc2c(Br)cc([N+](=O)[O-])cc2C1=O`, the half-inhibitory concentration (IC50) – broadly, the concentration that gives 50% inhibition – in the assay with U-937 was over 369 µM. In the assay on U-937, `Oc1[nH]c2ccccc2c1/N=N/c1ccccc1` gave an IC50 of over 211 µM.

Turning to `O=C1Nc2c(cc(Br)c(Br)c2Br)C1=O`, the IC50 with U-937 was 6.76 µM; in the assay on Jurkat, 5.8 µM; with MDA-MB-231, 21.8 µM; in the assay on MCF7, 13.3 µM; in the assay with PC-3, 25.9 µM; with HCT-116 it was 15.9 µM. Further, the outcome on Caspase-3 (Homo sapiens) and on Caspase-7 (Homo sapiens) was Active.

Molecule `O=C1Nc2c(cc(Br)cc2[N+](=O)[O-])C1=O` returned an IC50 in the assay with U-937 of 257 µM. The same measure, in the same setting: as for `O=C1Nc2cc(Br)c([N+](=O)[O-])cc2C1=O`, the figure is 17.1 µM. With `O=C1Nc2ccc(F)cc2C1=O` [5-FLUOROISATIN], in the assay on U-937, the IC50 stood at 98.4 µM. Still for that read-out and setting: as for `O=C1Nc2cccc(Br)c2C1=O`, the figure is 214 µM; as for `COc1ccc2c(c1)C(=O)C(=O)N2` [5-METHOXYISATIN], 420 µM; as for `O=C1Nc2c(Br)cccc2C1=O`, 83 µM. Regarding `CN1C(=O)C(=O)c2ccccc21`, in the assay on U-937, the IC50 is 238 µM. Molecule `O=C1Nc2ccc([N+](=O)[O-])cc2C1=O` [5-NITROISATIN] showed an IC50 with U-937 of 132 µM. For the molecule `O=C1Nc2ccc(I)cc2C1=O` [5-IODOISATIN], in the assay on U-937, it took 53.4 µM to reach half-maximal inhibition (IC50). As to `O=C1Nc2cc(Br)c(Br)cc2C1=O`, the IC50 in the assay on U-937 is 11.6 µM; in the assay on Jurkat, 20.2 µM; in the assay with MDA-MB-231, 41.7 µM; with MCF7, 20.2 µM; in the assay on PC-3, 41 µM; with HCT-116 it was 37.3 µM. Molecule `O=C1Nc2cc(Br)ccc2C1=O` returned an IC50 in the assay with U-937 of 74.8 µM. The same measure, in the same setting: as for `O=C1Nc2ccc(Br)cc2C1=O`, the figure is 64.5 µM. `O=C1Nc2c(I)cc(I)cc2C1=O`: the IC50 with U-937 worked out at 7.85 µM; with Jurkat it was 20.9 µM; in the assay with MDA-MB-231 it was 41.8 µM; in the assay on MCF7 it was 18.4 µM; with PC-3, 71.9 µM; in the assay on HCT-116 it was 24 µM. With `O=C1Nc2c(Br)cc(Br)cc2/C1=N/c1ccccc1`, in the assay with U-937, half-maximal inhibition (IC50) was put at 13.7 µM. In other words, the double-digit micromolar range. As for `O=C1Nc2c(Br)cc(Br)cc2C1=O`, the inhibition (in general, how much of the control response was suppressed) in [1] amounted to 44%.
